Experimental data from PMC9264115, “Pd-catalyzed C–C and C–N cross-coupling reactions in 2-aminothieno[3,2-d]pyrimidin-4(3H)-one series for antiplasmodial pharmacomodulation” (RSC Advances, 2022).

How the values were obtained:
[1] = test system: K1 culture-adapted P. falciparum strain; test: Antiplasmodial evaluation, SYBR Green I fluorescence-based drug susceptibility test; type: cell-based; details: for EC50: Plasmodium falciparum, multi-resistant K1 strain of P. falciparum, 72 h incubation, three independent experiments, read-out: EC50 PfK1; for SI (selectivity index): from CC50 HepG2 and EC50 PfK1
Procedure: […]. Parasitemia was maintained daily between 1 and 3%. The P. falciparum drug susceptibility test was carried out by comparing quantities of DNA in treated and control cultures of parasite in human erythrocytes according to a SYBR Green I fluorescence-based method[19] using a 96-well fluorescence plate reader. Compounds previously dissolved in DMSO (final concentration less than 0.5% v/v) were incubated in a total assay volume of 200 μL (RPMI, 2% hematocrit and 0.4% parasitemia) for 72 h in a humidified atmosphere (10% O2 and 5% CO2) at 37 °C in 96-well flat bottom plates. Duplicate assays were performed for each sample. After incubation, plates were frozen at […] for 24 h. Then, the frozen plates were thawed for 1 h at 37 °C. Fifteen μL of each sample were transferred to 96-well flat bottom non-sterile black plates (Greiner Bio-one, Kremsmünster, Austria), already containing 15 μL of the SYBR Green I lysis buffer (2X SYBR Green I, 20 mM Tris base pH 7.5, 20 mM EDTA, 0.008% w/v saponin, 0.08% w/v Triton X-100). […] Plates were incubated for 15 min at 37 °C and then read on a TECAN Infinite F-200 spectrophotometer with excitation and emission wavelengths at 485 and 535 nm, respectively.

[2] = Cytotoxic evaluation, MTT assay; type: cell-based; details: HepG2 cells, human HepG2 cell line, three independent experiments
Procedure: The HepG2 cell line was maintained at 37 °C, 5% CO2, at 90% humidity in […] supplemented with 10% fetal bovine serum, 1% L-glutamine (200 mM), and penicillin (100 U per mL)/streptomycin (100 μg mL^−1) (complete RPMI medium). The cytotoxicity of the tested molecules on the HepG2 (hepatocarcinoma cell line purchased from ATCC, ref HB-8065) cell line was assessed according to the method of Mosmann[20] with slight modifications. Briefly, 5 × 10^3 cells in 100 μL of complete medium were inoculated into each well of 96-well plates and incubated at 37 °C in humidified 5% CO2. After 24 h incubation, 100 μL of medium with various product concentrations dissolved in DMSO (final concentration less than 0.5% v/v) were added and the plates were incubated for 72 h at 37 °C. Triplicate assays were performed for each sample. Each plate was then microscopically examined for possible precipitate formation before the medium was aspirated from the wells. Next, 100 μL of MTT (3-(4,5-dimethyl-2-thiazolyl)-2,5-diphenyl-2H-tetrazolium bromide) solution (0.5 mg mL^−1 in medium without FBS) was added to each well. Cells were incubated for 2 h at 37 °C. After this time, the MTT solution was removed and DMSO (100 μL) was added to dissolve the resulting blue formazan crystals. Plates were shaken vigorously (700 rpm) for 10 min. The absorbance was measured at 570 nm with 630 nm as a reference wavelength using a BIO-TEK ELx808 Absorbance Microplate Reader (LabX, Midland, ON, Canada). DMSO was used as a blank and doxorubicin (purchased from Sigma Aldrich) as a positive control. Cell viability was calculated as a percentage of control (cells incubated without the compound). […] CC50 values to represent the mean value calculated from three independent experiments.

Row | EC50 [1] [µM] | melting point [°C] | SMILES | SI (selectivity index) [1] | CC50 at 72 h [2] [µM]
1 | 2.1 ± 0.6 | > 300 | CC(C)(C)Nc1nc2cc(-c3cnc(N4CCOCC4)nc3)sc2c(=O)[nH]1 [Compound 4n, 2-tert-Butylamino-6-[2-(morpholin-4-yl)pyrimidin-5-yl]thieno[3,2-d]pyrimidin-4(3H)-one] | 12.6 | 26.4 ± 4.6
2 | 2.5 ± 0.9 | > 300 | COC(=O)c1ccc(-c2cc3nc(NC(C)(C)C)[nH]c(=O)c3s2)cc1 [Compound 4a, Methyl-4-(2-tert-butylamino-4-oxo-3,4-dihydrothieno[3,2-d]pyrimidin-6-yl)benzoate] | >5.0 | > 12.5
3 | 3 ± 0.6 | – | CC(C)(C)Nc1nc2cc(-c3ccc(S(C)(=O)=O)cc3)sc2c(=O)[nH]1 [Compound 4k, 2-tert-Butylamino-6-[4-(methylsulfonyl)phenyl]thieno[3,2-d]pyrimidin-4(3H)-one] | – | > 25
4 | 3.5 ± 1.2 | 259 to 261 | CC(C)(C)Nc1nc2cc(-c3ccc(N)cc3)sc2c(=O)[nH]1 [Compound 4p, 6-(4-aminophenyl)-2-tert-butylaminothieno[3,2-d]pyrimidin-4(3H)-one] | 0.7 | 2.5 ± 1
5 | 6 ± 1.1 | – | CC(C)Nc1nc2cc(-c3ccc(N)cc3)sc2c(=O)[nH]1 [Compound 4q, 6-(4-aminophenyl)-2-(propan-2-ylamino)thieno[3,2-d]pyrimidin-4(3H)-one] | – | 11.3 ± 3.5
6 | – | > 300 | CC(C)(C)Nc1nc2cc(-c3ccc([N+](=O)[O-])cc3)sc2c(=O)[nH]1 [Compound 4b, 2-tert-Butylamino-6-(4-nitrophenyl)thieno[3,2-d]pyrimidin-4(3H)-one] | – | –
7 | 2 ± 0.9 | 259 to 261 | CC(C)(C)Nc1nc2cc(-c3ccc(F)c(Cl)c3)sc2c(=O)[nH]1 [Compound 4e, 2-tert-Butylamino-6-(3-chloro-4-fluorophenyl)thieno[3,2-d]pyrimidin-4(3H)-one] | >6.3 | > 12.5
8 | 4.1 ± 0.7 | – | CN1CCN(c2ccc(-c3cc4nc(NC(C)(C)C)[nH]c(=O)c4s3)cc2)CC1 [Compound 4h, 2-tert-Butylamino-6-[4-(4-methylpiperazin-1-yl)phenyl]thieno[3,2-d]pyrimidin-4(3H)-one] | – | 5.8 ± 0.5
9 | 3.9 ± 1.1 | > 300 | CC(=O)Nc1ccc(-c2cc3nc(NC(C)(C)C)[nH]c(=O)c3s2)cc1 [Compound 4r, N-[4-(2-tert-butylamino-4-oxo-3,4-dihydrothieno[3,2-d]pyrimidin-6-yl)phenyl]acetamide] | <0.1 | 0.16 ± 0.04
10 | 4.1 ± 1.2 | – | CC(C)(C)Nc1nc2cc(-c3ccc(N4CCCCC4)cc3)sc2c(=O)[nH]1 [Compound 4i, 2-tert-Butylamino-6-[4-(piperidin-1-yl)phenyl]thieno[3,2-d]pyrimidin-4(3H)-one] | – | > 6.25
11 | 5.1 ± 2.6 | > 300 | CC(C)(C)Nc1nc2cc(-c3ccc(S(=O)(=O)N4CCOCC4)cc3)sc2c(=O)[nH]1 [Compound 4m, 2-tert-Butylamino-6-[4-(morpholin-4-ylsulfonyl)phenyl]thieno[3,2-d]pyrimidin-4(3H)-one] | >2.5 | > 12.5
12 | 1 ± 0.3 | 272 to 274 | CSc1ccc(-c2cc3nc(NC(C)(C)C)[nH]c(=O)c3s2)cc1 [Compound 4j, 2-tert-Butylamino-6-[4-(methylsulfanyl)phenyl]thieno[3,2-d]pyrimidin-4(3H)-one] | >12.5 | > 12.5
13 | 7.5 ± 1 | – | CC(C)(C)Nc1nc2cc(-c3ccc(O)cc3)sc2c(=O)[nH]1 [Compound 4d, 2-(tert-butylamino)-6-(4-hydroxyphenyl)thieno[3,2-d]pyrimidin-4(3H)-one] | – | 12.2 ± 0.3

The next lines start with the molecule.

Row | SMILES | EC50 [1] [µM] | melting point [°C] | SI (selectivity index) [1] | CC50 at 72 h [2] [µM]
14 | Cc1cccc(Nc2cc3nc(NC(C)(C)C)[nH]c(=O)c3s2)c1 [Compound 1b, 2-tert-Butylamino-6-[(3-methylphenyl)amino]thieno[3,2-d]pyrimidin-4(3H)-one] | 1.1 ± 0.3 | – | – | 5.3 ± 0.4
15 | COc1ccc(Nc2cc3nc(NC(C)(C)C)[nH]c(=O)c3s2)cc1 [Compound 1d, 2-tert-Butylamino-6-[(4-methoxyphenyl)amino]thieno[3,2-d]pyrimidin-4(3H)-one] | 7.2 ± 2 | 205 to 207 | 3.3 | 24 ± 3.1
16 | Cc1ccc(Nc2cc3nc(NC(C)(C)C)[nH]c(=O)c3s2)cc1 [Compound 1a, 2-tert-Butylamino-6-[(4-methylphenyl)amino]thieno[3,2-d]pyrimidin-4(3H)-one] | 10.3 ± 0.2 | – | – | 21.7 ± 2.1
17 | CC(C)Nc1nc2cc(C#Cc3ccccc3)sc2c(=O)[nH]1 [Compound 2h, 6-(phenylethynyl)-2-(propan-2-ylamino)thieno[3,2-d]pyrimidin-4(3H)-one] | 2.8 ± 1 | 276 to 278 | >4.5 | > 12.5
18 | CC(C)(C)Nc1nc2cc(C#CC3CC3)sc2c(=O)[nH]1 [Compound 2e, 2-tert-Butylamino-6-(cyclopropylethynyl)thieno[3,2-d]pyrimidin-4(3H)-one] | 1.9 ± 0.6 | 158 to 160 | 10.9 | 20.8 ± 1.4
19 | CC(C)(C)Nc1nc2cc(Br)sc2c(=O)[nH]1 [Compound 1, 6-Bromo-2-(tert-butylamino)thieno[3,2-d]pyrimidin-4(3H)-one] | 43.2 ± 2.6 | – | 0.9 | 38.2 ± 3.5
20 | CC(C)Nc1nc2cc(Br)sc2c(=O)[nH]1 [Compound 3, 6-Bromo-2-(propan-2-ylamino)thieno[3,2-d]pyrimidin-4(3H)-one] | > 50 | 240 to 242 | <1.8 | 89.1 ± 9.7
21 | Cc1ccccc1Nc1cc2nc(NC(C)(C)C)[nH]c(=O)c2s1 [Compound 1c, 2-tert-Butylamino-6-[(2-methylphenyl)amino]thieno[3,2-d]pyrimidin-4(3H)-one] | 4.3 ± 0.2 | – | – | 14.1 ± 0.3
22 | CC(C)(C)Nc1nc2cc(Nc3ccc(F)cc3)sc2c(=O)[nH]1 [Compound 1e, 2-tert-Butylamino-6-[(4-fluorophenyl)amino]thieno[3,2-d]pyrimidin-4(3H)-one] | 7.1 ± 1.4 | 195 to 197 | 3.0 | 21.3 ± 1.6
23 | CC(C)(C)Nc1nc2cc(C#CCCO)sc2c(=O)[nH]1 [Compound 2d, 2-tert-Butylamino-6-(4-hydroxybut-1-yn-1-yl)thieno[3,2-d]pyrimidin-4(3H)-one] | > 10 | – | – | > 50
24 | Cc1ccc(C#Cc2cc3nc(NC(C)C)[nH]c(=O)c3s2)cc1 [Compound 2c, 6-[(4-methylphenyl)ethynyl]-2-(propan-2-ylamino)thieno[3,2-d]pyrimidin-4(3H)-one] | 4.6 ± 1 | 277 to 279 | 0.7 | 3.1 ± 0.6
25 | C#Cc1cc2nc(NC(C)(C)C)[nH]c(=O)c2s1 [Compound 2f, 2-tert-Butylamino-6-ethynylthieno[3,2-d]pyrimidin-4(3H)-one] | > 12.5 | – | – | 4.7 ± 1
26 | Cc1ccc(C#Cc2cc3nc(NC(C)(C)C)[nH]c(=O)c3s2)cc1 [Compound 2b, 2-tert-Butylamino-6-[(4-methylphenyl)ethynyl]thieno[3,2-d]pyrimidin-4(3H)-one] | 2.35 ± 0.38 | 235 to 237 | >5.3 | > 12.5
27 | CN1CCN(CC#Cc2cc3nc(NC(C)(C)C)[nH]c(=O)c3s2)CC1 [Compound 2g, 2-tert-Butylamino-6-[3-(4-methylpiperazin-1-yl)prop-1-yn-1-yl]thieno[3,2-d]pyrimidin-4(3H)-one] | > 5 | – | – | 41.6 ± 5.2
